Experimental data reported in ChEMBL document CHEMBL5725366, “Oxindole compounds carrying a nitrogen-bound spiro substituent and use thereof for treating vasopressin-related diseases” (2017).

Biological target: T1, Vasopressin V1b receptor (Homo sapiens, UniProt P47901)
T1 sequence (P47901 whole entry): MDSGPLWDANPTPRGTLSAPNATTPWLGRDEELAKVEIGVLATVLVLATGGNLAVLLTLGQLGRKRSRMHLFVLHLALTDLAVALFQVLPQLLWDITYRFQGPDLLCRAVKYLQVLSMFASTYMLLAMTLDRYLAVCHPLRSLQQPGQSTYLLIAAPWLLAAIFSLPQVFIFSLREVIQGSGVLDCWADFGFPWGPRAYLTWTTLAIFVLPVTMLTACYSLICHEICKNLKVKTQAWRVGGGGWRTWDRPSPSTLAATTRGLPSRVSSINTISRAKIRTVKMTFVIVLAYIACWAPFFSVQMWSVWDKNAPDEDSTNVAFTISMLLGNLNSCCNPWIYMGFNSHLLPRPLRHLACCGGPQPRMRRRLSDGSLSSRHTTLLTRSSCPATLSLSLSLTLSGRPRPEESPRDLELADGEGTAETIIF
Experiment: The nonspecific binding was determined with 1 μM AVP (Fluka 94836). All determinations were carried out as duplicate determinations. […] The liquid scintillation measurement took place in a Microbeta TriLux 12 (Wallac).

Row | Ki | SMILES
1 | in the range around 5.5 nM | COc1ccc(S(=O)(=O)N2C(=O)C(c3ccc(F)cc3OC)(N3CC4(CN(C5CCN(C)CC5)C4)C3)C3C=C(C#N)C=CC32)nc1 (stereo not given)
2 | in the range around 5.5 nM | CCOc1ccc(OC)cc1[C@]1(N2CC3(CN(C4CCN(C)CC4)C3)C2)C(=O)N(S(=O)(=O)c2ccccn2)C2C=CC(C#N)=CC21 (stereo not given in full)
3 | in the range around 5.5 nM | CCOc1ccc(OC)c(C2(N3CC4(CN(C5CCN(C)CC5)C4)C3)C(=O)N(S(=O)(=O)c3ccc(OC)cc3)C3C=CC(C#N)=CC32)c1 (stereo not given)
4 | in the range around 5.5 nM | CCOc1ccc(OC)cc1[C@]1(N2CC3(CN(C4CCN(C)CC4)C3)C2)C(=O)N(S(=O)(=O)c2ccc(OC)nc2)C2C=CC(C#N)=CC21 (stereo not given in full)
5 | in the range around 5.5 nM | COc1ccc(S(=O)(=O)N2C(=O)C(c3ccccc3OC)(N3CC4(CN(N5CCN(C)CC5)C4)C3)C3C=C(C#N)C=CC32)nc1 (racemic)
6 | in the range around 5.5 nM | COc1ccc(S(=O)(=O)N2C(=O)C(c3ccccc3OC)(N3CC4(CN(C5CCN(C)CC5)C4)C3)C3C=C(C#N)C=CC32)nc1 (racemic)
7 | in the range around 5.5 nM | CCOc1ccc(OC)cc1C1(N2CC3(CN(N4CCN(C5COC5)CC4)C3)C2)C(=O)N(S(=O)(=O)c2ccc(OC)cn2)C2C=CC(C#N)=CC21 (racemic)
8 | in the range around 5.5 nM | CCOc1ccc(OC)c(C2(N3CC4(CN(C5CCN(C6COC6)CC5)C4)C3)C(=O)N(S(=O)(=O)c3ccc(OC)cn3)C3C=CC(C#N)=CC32)c1 (racemic)
9 | in the range around 5.5 nM | COc1ccc(S(=O)(=O)N2C(=O)C(c3cccnc3OC(C)(F)F)(N3CC4(CN(C5CCN(C)CC5)C4)C3)C3C=C(C#N)C=CC32)nc1 (racemic)
10 | in the range around 5.5 nM | CCOc1ncccc1C1(N2CC3(CN(N4CCN(C)CC4)C3)C2)C(=O)N(S(=O)(=O)c2ccc(OC)cn2)C2C=CC(C#N)=CC21 (racemic)
11 | in the range around 5.5 nM | CCOc1ccc(OC)c(C2(N3CC4(CN(C5CCN(C)CC5)C4)C3)C(=O)N(S(=O)(=O)c3ccc(OC)cn3)C3C=CC(C#N)=CC32)c1 (racemic; form 1)
12 | in the range around 5.5 nM | COc1ccc(S(=O)(=O)N2C(=O)C(c3cccnc3OC)(N3CC4(CN(C5CCN(C)CC5)C4)C3)C3C=C(C#N)C=CC32)nc1 (racemic; form 1)
13 | in the range around 5.5 nM | CCOc1ccc(OC)c(C2(N3CC4(CN(C5CCN(C)CC5)C4)C3)C(=O)N(S(=O)(=O)c3ccc(OC)cn3)C3C=CC(C#N)=CC32)c1 (racemic; form 2)
14 | in the range around 5.5 nM | COc1ccc(S(=O)(=O)N2C(=O)C(c3cccnc3OC)(N3CC4(CN(C5CCN(C)CC5)C4)C3)C3C=C(C#N)C=CC32)nc1 (racemic; form 2)
15 | in the range around 5.5 nM | COc1ccc(S(=O)(=O)N2C(=O)C(c3ccccc3OC)(N3CC4(CN(C5CCN(C6COC6)CC5)C4)C3)C3C=C(C#N)C=CC32)nc1 (single isomer, unassigned; (+))
